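Interpolation was linear, between the two tested concentrations surrounding the appropriate level; five concentrations were tested over 48 hours in 96-well plates. At the TGI there is no net growth.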
Experiments:
Assay in all cases: NCI tumour cell line growth inhibition, 48 h
786-0 renal = tested on: 786-0 renal
A498 renal = tested on: A498 renal
A549 NSCLC = tested on: A549 NSCLC
ACHN renal = tested on: ACHN renal
CAKI-1 renal = tested on: CAKI-1 renal
CCRF-CEM leukemia = tested on: CCRF-CEM leukemia
COLO 205 colon = tested on: COLO 205 colon
DU-145 prostate = tested on: DU-145 prostate
EKVX NSCLC = tested on: EKVX NSCLC
HCC-2998 colon = tested on: HCC-2998 colon
HCT-116 colon = tested on: HCT-116 colon
HCT-15 colon = tested on: HCT-15 colon
HL-60(TB) leukemia = tested on: HL-60(TB) leukemia
HOP-62 NSCLC = tested on: HOP-62 NSCLC
HOP-92 NSCLC = tested on: HOP-92 NSCLC
HS 578T breast = tested on: HS 578T breast
HT29 colon = tested on: HT29 colon
IGROV1 ovarian = tested on: IGROV1 ovarian
K-562 leukemia = tested on: K-562 leukemia
KM12 colon = tested on: KM12 colon
LOX IMVI melanoma = tested on: LOX IMVI melanoma
M14 melanoma = tested on: M14 melanoma
MALME-3M melanoma = tested on: MALME-3M melanoma
MCF7 breast = tested on: MCF7 breast
MDA-MB-231 breast = tested on: MDA-MB-231 breast
MDA-MB-435 = tested on: MDA-MB-435
MDA-N = tested on: MDA-N
MOLT-4 leukemia = tested on: MOLT-4 leukemia
NCI-H226 lung = tested on: NCI-H226 lung
NCI-H23 lung = tested on: NCI-H23 lung
NCI-H460 lung = tested on: NCI-H460 lung
NCI-H522 lung = tested on: NCI-H522 lung
NCI/ADR-RES ovarian = tested on: NCI/ADR-RES ovarian
OVCAR-3 ovarian = tested on: OVCAR-3 ovarian
OVCAR-4 ovarian = tested on: OVCAR-4 ovarian
OVCAR-5 ovarian = tested on: OVCAR-5 ovarian
OVCAR-8 ovarian = tested on: OVCAR-8 ovarian
PC-3 prostate = tested on: PC-3 prostate
RPMI-8226 leukemia = tested on: RPMI-8226 leukemia
RXF 393 renal = tested on: RXF 393 renal
SF-268 CNS = tested on: SF-268 CNS
SF-295 CNS = tested on: SF-295 CNS
SF-539 CNS = tested on: SF-539 CNS
SK-MEL-2 melanoma = tested on: SK-MEL-2 melanoma
SK-MEL-28 melanoma = tested on: SK-MEL-28 melanoma
SK-MEL-5 melanoma = tested on: SK-MEL-5 melanoma
SK-OV-3 ovarian = tested on: SK-OV-3 ovarian
SN12C renal = tested on: SN12C renal
SNB-19 CNS = tested on: SNB-19 CNS
SNB-75 CNS = tested on: SNB-75 CNS
SR leukemia = tested on: SR leukemia
SW-620 colon = tested on: SW-620 colon
T-47D breast = tested on: T-47D breast
TK-10 renal = tested on: TK-10 renal
U251 CNS = tested on: U251 CNS
UACC-257 melanoma = tested on: UACC-257 melanoma
UACC-62 melanoma = tested on: UACC-62 melanoma

CCCCNC(=O)OCCN=C1c2ccccc2C(Br)C(Br)c2ccccc21 (centres undefined)
TGI (786-0 renal): 28.3 µM
TGI (A498 renal): > 100 µM
TGI (A549 NSCLC): > 100 µM
TGI (ACHN renal): 62.4 µM
TGI (CAKI-1 renal): 49.2 µM
TGI (CCRF-CEM leukemia): > 100 µM
TGI (COLO 205 colon): 44.7 µM
TGI (DU-145 prostate): > 100 µM
TGI (EKVX NSCLC): > 100 µM
TGI (HCC-2998 colon): > 100 µM
TGI (HCT-116 colon): 60.5 µM
TGI (HCT-15 colon): 38.2 µM
TGI (HL-60(TB) leukemia): 37.6 µM
TGI (HOP-62 NSCLC): > 100 µM
TGI (HOP-92 NSCLC): 37.1 µM
TGI (HS 578T breast): > 100 µM
TGI (HT29 colon): 58.3 µM
TGI (IGROV1 ovarian): > 100 µM
TGI (K-562 leukemia): > 100 µM
TGI (KM12 colon): > 100 µM
TGI (LOX IMVI melanoma): 47.2 µM
TGI (M14 melanoma): 40.2 µM
TGI (MALME-3M melanoma): 52.9 µM
TGI (MCF7 breast): > 100 µM
TGI (MDA-MB-231 breast): > 100 µM
TGI (MDA-MB-435): 57 µM
TGI (MDA-N): 31.7 µM
TGI (MOLT-4 leukemia): 84.1 µM
TGI (NCI-H226 lung): > 100 µM
TGI (NCI-H23 lung): > 100 µM
TGI (NCI-H460 lung): > 100 µM
TGI (NCI-H522 lung): 73 µM
TGI (NCI/ADR-RES ovarian): 47.2 µM
TGI (OVCAR-3 ovarian): 46.1 µM
TGI (OVCAR-4 ovarian): 59.6 µM
TGI (OVCAR-5 ovarian): > 100 µM
TGI (OVCAR-8 ovarian): 58.9 µM
TGI (PC-3 prostate): > 100 µM
TGI (RPMI-8226 leukemia): 62.1 µM
TGI (RXF 393 renal): 34.8 µM
TGI (SF-268 CNS): > 100 µM
TGI (SF-295 CNS): > 100 µM
TGI (SF-539 CNS): > 100 µM
TGI (SK-MEL-2 melanoma): > 100 µM
TGI (SK-MEL-28 melanoma): > 100 µM
TGI (SK-MEL-5 melanoma): 50.3 µM
TGI (SK-OV-3 ovarian): > 100 µM
TGI (SN12C renal): > 100 µM
TGI (SNB-19 CNS): 55.3 µM
TGI (SNB-75 CNS): > 100 µM
TGI (SR leukemia): > 100 µM
TGI (SW-620 colon): > 100 µM
TGI (T-47D breast): > 100 µM
TGI (TK-10 renal): 52.2 µM
TGI (U251 CNS): 62.5 µM
TGI (UACC-257 melanoma): 76.2 µM
TGI (UACC-62 melanoma): > 100 µM

COc1cc(Br)c(CC2C3=C(CCN2C(=O)C2CCC2)CC2(CC3)OCCO2)cc1O (centres undefined)
TGI (786-0 renal): > 100 µM
TGI (A498 renal): > 100 µM
TGI (A549 NSCLC): > 100 µM
TGI (ACHN renal): > 100 µM
TGI (CAKI-1 renal): > 100 µM
TGI (CCRF-CEM leukemia): > 100 µM
TGI (COLO 205 colon): 34.8 µM
TGI (DU-145 prostate): > 100 µM
TGI (EKVX NSCLC): > 100 µM
TGI (HCC-2998 colon): > 100 µM
TGI (HCT-116 colon): > 100 µM
TGI (HCT-15 colon): > 100 µM
TGI (HL-60(TB) leukemia): > 100 µM
TGI (HOP-62 NSCLC): > 100 µM
TGI (HOP-92 NSCLC): > 100 µM
TGI (HS 578T breast): > 100 µM
TGI (HT29 colon): 60.3 µM
TGI (IGROV1 ovarian): > 100 µM
TGI (K-562 leukemia): > 100 µM
TGI (KM12 colon): > 100 µM
TGI (LOX IMVI melanoma): > 100 µM
TGI (M14 melanoma): > 100 µM
TGI (MALME-3M melanoma): > 100 µM
TGI (MCF7 breast): > 100 µM
TGI (MDA-MB-231 breast): > 100 µM
TGI (MDA-MB-435): 64 µM
TGI (MDA-N): > 100 µM
TGI (MOLT-4 leukemia): > 100 µM
TGI (NCI-H226 lung): > 100 µM
TGI (NCI-H23 lung): 79.7 µM
TGI (NCI-H460 lung): > 100 µM
TGI (NCI-H522 lung): 98.4 µM
TGI (NCI/ADR-RES ovarian): > 100 µM
TGI (OVCAR-3 ovarian): > 100 µM
TGI (OVCAR-4 ovarian): > 100 µM
TGI (OVCAR-5 ovarian): > 100 µM
TGI (OVCAR-8 ovarian): > 100 µM
TGI (PC-3 prostate): > 100 µM
TGI (RPMI-8226 leukemia): > 100 µM
TGI (RXF 393 renal): 44.4 µM
TGI (SF-268 CNS): > 100 µM
TGI (SF-295 CNS): > 100 µM
TGI (SF-539 CNS): > 100 µM
TGI (SK-MEL-2 melanoma): > 100 µM
TGI (SK-MEL-28 melanoma): > 100 µM
TGI (SK-MEL-5 melanoma): > 100 µM
TGI (SK-OV-3 ovarian): > 100 µM
TGI (SN12C renal): > 100 µM
TGI (SNB-19 CNS): > 100 µM
TGI (SNB-75 CNS): 76.8 µM
TGI (SR leukemia): > 100 µM
TGI (SW-620 colon): > 100 µM
TGI (T-47D breast): > 100 µM
TGI (TK-10 renal): > 100 µM
TGI (U251 CNS): > 100 µM
TGI (UACC-257 melanoma): > 100 µM
TGI (UACC-62 melanoma): > 100 µM

— PubChem BioAssay (NCI)
